Reference: paper PMC3466269, “A Comprehensive Strategy to Discover Inhibitors of the Translesion Synthesis DNA Polymerase κ” (PLoS ONE, 2012)

Legend:
[1] = molecular target: T1, Human pol κ (residues 19–526) (Homo sapiens, UniProt Q9UBT6); assay: qHTS fluorescence-based DNA strand displacement assay; type: biochemical; conditions: fluorescence strand displacement, 10 nM pol κ, 50 nM substrate, 100 µM dTTP; read-out: qHTS: IC50
T1 construct: Human pol κ (residues 19–526) was purified as previously reported; made in house
T1 sequence (Q9UBT6 19-526): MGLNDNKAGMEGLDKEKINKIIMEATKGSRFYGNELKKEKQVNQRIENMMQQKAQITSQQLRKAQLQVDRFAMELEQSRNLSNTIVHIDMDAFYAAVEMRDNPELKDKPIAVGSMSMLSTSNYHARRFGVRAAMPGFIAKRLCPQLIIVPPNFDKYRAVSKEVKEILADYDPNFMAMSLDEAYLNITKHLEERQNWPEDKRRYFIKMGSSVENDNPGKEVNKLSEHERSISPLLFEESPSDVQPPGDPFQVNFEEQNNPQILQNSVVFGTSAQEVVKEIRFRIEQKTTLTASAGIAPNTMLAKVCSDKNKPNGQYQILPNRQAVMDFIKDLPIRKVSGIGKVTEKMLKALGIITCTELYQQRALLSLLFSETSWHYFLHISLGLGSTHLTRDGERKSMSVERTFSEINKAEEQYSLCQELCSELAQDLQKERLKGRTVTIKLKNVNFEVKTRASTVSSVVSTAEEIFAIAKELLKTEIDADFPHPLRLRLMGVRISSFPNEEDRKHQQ
Protocol: The substrate used in qHTS was made by the annealing of unlabeled oligodeoxynucleotide primer (5′-TCACCCTCGTACGACTC-3′) and TAMRA-labeled reporter strand (5′-TTTTTTTTTTGC-6-TAMRA-3′) to oligodeoxynucleotide template labeled with BHQ-2 (5′-BHQ-2-[…]-3′) as originally described by Dorjsuren et al.. The annealing mixture of unlabeled primer, TAMRA-labeled reporter, and BHQ-2-labeled template in buffer containing 50 mM Tris-HCl, pH 8.0, 100 mM NaCl, and 5 mM MgCl2 was heated at 95°C for 5 min and allowed to cool gradually to room temperature. The substrate was then stored at −20°C as 50 µM stock.
qHTS was performed in 50 mM Tris-HCI, pH 8.0, 40 mM NaCl, 1 mM MgCl2, 0.01% Tween-20, 2 mM DTT, and 100 µM dTTP. 3 µL of reagents (buffer as negative control and pol κ in the remaining plate at 10 nM final concentration) were dispensed by Flying Reagent Dispenser™ (FRD) (Beckman Coulter, Inc., Fullerton, CA) into a 1,536-well plate. Compounds were delivered as 23 nL in DMSO solution via pintool transfer; vehicle-only control consisted of 23 nL DMSO. The plate was incubated for 15 min at room temperature, and then 1 µL of substrate (50 nM final concentration) was added to initiate the reaction. The plate was immediately transferred into ViewLux reader for kinetic fluorescence data collection.
To lay the foundation for the methodologies to discover and characterize inhibitors of pol κ, we used a fluorescent reporter strand displacement assay (Figure 1 and [27]). The library of bioactive small molecules was tested as seven-point dilution series, with the final concentrations ranging from 2.9 nM to 57 µM.

[2] = test system: double-stranded DNA ladder; assay: DNA intercalation assay (agarose gel shift of DNA ladder); type: binding; conditions: 0.75 or 3 nmol compound with 1.5 nmol DNA, 1% agarose gel
Protocol: Candesartan cilexetil or ethidium bromide was incubated with 1.5 nmol of double-stranded DNA ladder for 15 min at room temperature in the buffer containing 50 mM Tris-HCl, pH 8.0, 0.01% Tween-20, 1 mM DTT, and 40 mM NaCl. The reaction mixtures were run on 1% agarose gel and stained with ethidium bromide (0.5 µg/ml) for visualization.
Figure 7 The non-DNA-intercalating property of candesartan cilexetil. Candesartan cilexetil or ethidium bromide was incubated with double-stranded DNA ladder, and the reaction products were run on 1% agarose gel and stained with ethidium bromide. Lane 1: No compound. Lane 2: 0.75 nmol of candesartan cilexetil was incubated with 1.5 nmol DNA. Lane 3: 3 nmol of candesartan cilexetil was incubated with 1.5 nmol DNA. Lane 4: 0.75 nmol of ethidium bromide was incubated with 1.5 nmol DNA. Lane 5: 3 nmol of ethidium bromide was incubated with 1.5 nmol DNA.

IC50 [1]: 32 µM
SMILES: CCOc1nc2cccc(C(=O)OC(C)OC(=O)OC3CCCCC3)c2n1Cc1ccc(-c2ccccc2-c2nnn[nH]2)cc1 (centres unmarked) [candesartan cilexetil, Candesartan cilexetil]
DNA migration pattern (intercalation) [2]: no difference in DNA migration pattern
